# Experiments:
# B-Raf = B-Raf (Homo sapiens (Human), UniProt P15056); experiment: Enzyme binding assay (Kinomescan)
# Method: (§1) The kinase enzyme binding activities of compounds disclosed herein were determined using a proprietary assay which measures active site-directed competition binding to an immobilized ligand (Fabian, M. A. et al., Nature Biotechnol., 2005, 23:329-336). These assays were conducted by DiscoverX (formerly Ambit; San Diego, Calif.). The percentage inhibition produced by incubation with a test compound is calculated relative to the non-inhibited control.
# B-Raf (V600e) = B-Raf (V600e) (Homo sapiens (Human), UniProt P15056, V600E); experiment: Enzyme binding assay (KINOMEscan)
# Method: as §1
# [1] = biological target: p38 MAPKα isoform (MAPK14) (Homo sapiens (Human), UniProt Q16539); experiment: p38 MAPKα enzyme inhibition (FRET, Z-LYTE), Method 2; type: biochemical; conditions: Method 2, different laboratory (Table 4a2)
# [2] = test system: Intestinal mucosa biopsies from the inflamed regions of the colon of IBD patients; experiment: (h) Human biopsy assay (cytokine release); type: cell-based
# Method: Intestinal mucosa biopsies are obtained from the inflamed regions of the colon of IBD patients. The biopsy material is cut into small pieces (2-3 mm) and placed on steel grids in an organ culture chamber at 37° C. in a 5% CO2/95% O2 atmosphere in serum-free media. DMSO control or test compounds at the desired concentration are added to the tissue and incubated for 24 hr in the organ culture chamber. The supernatant is harvested for determination of IL-6, IL-8, […] and TNFα levels by R&D ELISA.
# BDF1 mice = experiment: (C) TNBS-induced colitis in mice; type: in vivo, mouse; set-up: TNBS Ulcer grade / TNBS LP inflammation: scale not given here; conditions: 2 days; for TNBS LP inflammation / TNBS Ulcer grade: mice
# Method: Non-fasted, 10-12 week old, male BDF1 mice are dosed by oral gavage twice daily with either vehicle (5 mL/kg), reference item (Budesonide 2.5 mg/kg) or test compound (1, 5 or 50 mg/kg) one day before (Day −1) stimulation of the inflammatory response by treatment with 2,4,6-trinitrobenzenesulphonic acid (TNBS) (15 mg/mL in 50% ethanol/50% saline). On Day 0 of the study TNBS (200 μL) is administered intra-colonically via a plastic catheter followed by BID dosing of the vehicle, reference or test compound for 2 or 4 days. During the study animals are weighed every day and stool observations are made and recorded as a score, based on stool consistency. At the time of sacrifice on Day 2 (or Day 4) the large intestine is removed and the length and weight recorded. Sections of the colon are taken for either MPO analysis to determine neutrophil infiltration or for histopathology involving scoring to determine disease severity.
# [3] = Plasma pharmacokinetics in beagle dogs; type: in vivo, male beagle dogs; conditions: Dog
# Method: A study was conducted by Sai Life Sciences (Hinjewadi, Pune, India) to investigate the plasma pharmacokinetics of the compound of Example 77 in male beagle dogs following a single intravenous or oral administration.
# A group of three male beagle dogs were administered orally with an aqueous suspension formulation (having 2% HPMC and 0.5% Tween 80) of the compound of Example 77, at a dose of 1 mg/kg. In addition, a group of three male beagle dogs were administered intravenously with a solution formulation (in 5% v/v DMSO, 7.5% w/v Solutol HS 15 and 87.5% saline (0.9% w/v NaCl)) of the compound of Example 77, at a dose of 0.05 mg/kg. Blood samples (approximately 1.5 mL) were collected from jugular vein such that the samples were obtained at pre-dose, 0.25, 0.5, 1, 2, 4, 6, 8, and 24 hr (p.o.) and pre-dose, 0.08, 0.25, 0.5, 1, 2, 4, 8, 12, 24 and 32 hr (i.v.) post dose. The blood samples were collected from a set of three dogs at each time point in labelled micro centrifuge tube containing K2EDTA as anticoagulant. Plasma samples were separated by centrifugation at 2500 g for 10 min of whole blood and stored below −70° C. until bioanalysis. All samples were processed for analysis by protein precipitation using acetonitrile and analyzed with LC-MS/MS method (LLOQ=0.50 ng/mL). Pharmacokinetic parameters were calculated using the non-compartmental analysis tool of Phoenix WinNonlin® (Version 6.3).
# [4] = test system: 71 receptors and 26 enzymes; experiment: Diversity Profile (Cerep); type: binding; conditions: 300 nM
# Method: Studies were conducted by Cerep (Celle-Lévescault, France) to investigate the binding of the compound of Example 77 to a diverse selection of receptors and to investigate either the inhibition or activation of a selection of enzymes (the “Diversity Profile” comprising a total of 71 receptors and 26 enzymes).
# [5] = test system: Salmonella typhimurium, strains TA98 and TA100; experiment: Mutagenicity assessment (bacterial reverse mutation screen); type: cell-based; conditions: TA98 and TA100, presence or absence of S-9 mix, up to 5000 μg/plate
# Method: Studies were conducted by Sequani (Ledbury, Herefordshire, UK) to assess the compound of Example 77 in vitro for its ability to induce mutations in two histidine dependent auxotrophic mutants of Salmonella typhimurium, strains TA98 and TA100.
# The mutation screen was conducted using the plate incorporation method and was performed in both the presence and absence of S-9 mix (a liver post-mitochondrial fraction derived from the livers of Aroclor 1254 treated rats). The bacteria were exposed to the compound of Example 77 dissolved in dimethylsulphoxide, which solvent was also used as the negative control. The dose levels used were 0.32, 1.6, 8, 40, 200, 1000 or 5000 μg/plate.
# [6] = male, beagle, plasma, intravenous 0.05 mg/kg
# Chain of B-Raf (V600e) (P15056 whole entry V600E): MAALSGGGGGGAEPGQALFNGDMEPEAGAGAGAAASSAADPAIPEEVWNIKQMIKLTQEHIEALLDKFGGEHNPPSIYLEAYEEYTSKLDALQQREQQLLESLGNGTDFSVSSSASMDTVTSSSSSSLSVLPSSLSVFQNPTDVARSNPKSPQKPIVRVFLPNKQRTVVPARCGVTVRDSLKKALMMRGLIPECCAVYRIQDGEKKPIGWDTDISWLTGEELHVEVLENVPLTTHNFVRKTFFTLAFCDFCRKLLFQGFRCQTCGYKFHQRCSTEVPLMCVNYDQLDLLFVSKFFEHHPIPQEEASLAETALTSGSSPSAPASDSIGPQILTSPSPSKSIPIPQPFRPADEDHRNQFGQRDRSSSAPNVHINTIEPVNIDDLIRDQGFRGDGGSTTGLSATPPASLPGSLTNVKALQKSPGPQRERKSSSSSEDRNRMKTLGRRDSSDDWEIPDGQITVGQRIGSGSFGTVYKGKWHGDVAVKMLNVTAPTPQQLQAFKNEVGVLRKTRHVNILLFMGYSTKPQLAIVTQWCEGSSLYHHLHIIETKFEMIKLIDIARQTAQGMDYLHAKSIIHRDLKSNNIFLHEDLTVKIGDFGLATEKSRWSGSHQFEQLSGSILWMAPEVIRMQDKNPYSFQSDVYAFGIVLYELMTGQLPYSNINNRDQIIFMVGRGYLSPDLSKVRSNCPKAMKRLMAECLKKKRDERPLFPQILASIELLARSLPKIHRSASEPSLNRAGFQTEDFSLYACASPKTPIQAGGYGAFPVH
# Chain of p38 MAPKα isoform (MAPK14) (Q16539 whole entry, canonical isoform): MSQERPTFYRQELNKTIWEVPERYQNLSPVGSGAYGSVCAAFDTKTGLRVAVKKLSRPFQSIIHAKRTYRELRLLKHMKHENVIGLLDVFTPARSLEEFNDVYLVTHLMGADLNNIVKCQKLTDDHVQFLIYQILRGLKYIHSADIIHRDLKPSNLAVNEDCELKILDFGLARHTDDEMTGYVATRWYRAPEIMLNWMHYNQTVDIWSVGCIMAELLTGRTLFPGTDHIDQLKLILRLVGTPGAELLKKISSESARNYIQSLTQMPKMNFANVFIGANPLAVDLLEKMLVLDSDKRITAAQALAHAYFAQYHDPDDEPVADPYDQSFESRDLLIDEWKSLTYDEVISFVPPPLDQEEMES
# Chain of B-Raf (P15056 whole entry): as the sequence (P15056 whole entry V600E) above, with E600V counted along it
smiles,measurement,setting,value
"C#Cc1cc(Nc2nccc(Oc3ccc(NC(=O)Nc4cc(C(C)(C)C)nn4-c4ccc(OC)cc4)c4ccccc34)n2)cc(C(=O)NCCN2CCOCC2)c1 [Example 77, 3-((4-((4-(3-(3-(tert-Butyl)-1-(4-methoxyphenyl)-1H-pyrazol-5-yl)ureido)-naphthalen-1-yl)oxy)pyrimidin-2-yl)amino)-5-ethynyl-N-(2-morpholinoethyl)benzamide]",effect on the binding of the kinase B-Raf to its standard ligand,B-Raf,did not have any effect
same,effect on the binding of the kinase B-Raf (V600e) to its standard ligand,B-Raf (V600e),did not have any effect
same,IC50,[1],22 nM
same,Cytokine release from biopsies of UC patients IL-1b release,"[2]; 1 μg/mL, DMSO control 100%",26 ± 16%
same,Cytokine release from biopsies of UC patients IL-6 release,"[2]; 1 μg/mL, DMSO control 100%",67 ± 128%
same,Cytokine release from biopsies of UC patients IL-8 release,"[2]; 1 μg/mL, DMSO control 100%",36 ± 117%
same,cytokine release from biopsies from ulcerative colitis (UC) patients,[2]; added to biopsies in vitro,"markedly reduced IL-1b, IL-6 and IL-8 release"
same,"histopathology analysis, in vivo model of colonic inflammation","BDF1 mice; TNBS-induced colitis, dosed orally at 5 mg/kg",significant activity
same,TNBS LP inflammation,BDF1 mice; 1 mg/kg oral BID,2.4 ± 0.3
same,TNBS Ulcer grade,BDF1 mice; 1 mg/kg oral BID,3.1 ± 0.5
same,TNBS LP inflammation,BDF1 mice; 5 mg/kg oral BID,2.1 ± 0.3
same,TNBS Ulcer grade,BDF1 mice; 5 mg/kg oral BID,2.4 ± 0.5
same,plasma exposure after oral administration,[3]; 1 mg/kg p.o.,no plasma exposure at all was observed
same,Fpo,"[3]; 1 mg/kg p.o., Plasma",0%
same,AUC(0-inf),[3]; [6],37 ng·h/mL
same,AUC(0-t),[3]; [6],33.6 ng·h/mL
same,C0,[3]; [6],283 ng/mL
same,Vd,[3]; [6],1.8 L/kg
same,clearance,[3]; [6],25.4 mL/min/kg
same,half-life,[3]; [6],2.5 h
same,inhibition of the control specific binding in the receptor binding assays or enzyme assays,[4],less than 25%
same,ability to induce mutations (revertant colonies),[5],no dose-related or statistically significant increases in revertant colonies

# Source: patent US9701670B2, “Pyrazolyl-ureas as kinase inhibitors” (RESPIVERT LIMITED, priority 2013, dated 2017)
